In PubChem BioAssay AID1259407 (Chemical Carcinogenesis Research Information System (CCRIS), 2018):
The source made the active and inactive calls. No rule for the calls is given here.

Tested on: CCRIS mutagenicity, Ames/micronucleus/aberration tests
Test: CCRIS mutagenicity studies

[Cr]
mutagenic call (Test System: AMES SALMONELLA TYPHIMURIUM, Strain/Indicator: TA98, Metabolic Activation: NONE, Method: STANDARD PLATE): active; positive
mutagenic call (Test System: AMES SALMONELLA TYPHIMURIUM, Strain/Indicator: TA98, Metabolic Activation: RAT, LIVER, S-9, PHENOBARBITAL, Method: STANDARD PLATE): inactive; negative
mutagenic call (Test System: AMES SALMONELLA TYPHIMURIUM, Strain/Indicator: TA102, Metabolic Activation: NONE, Method: STANDARD PLATE): inactive; negative
mutagenic call (Test System: AMES SALMONELLA TYPHIMURIUM, Strain/Indicator: TA102, Metabolic Activation: RAT, LIVER, S-9, PHENOBARBITAL, Method: STANDARD PLATE): inactive; negative
mutagenic call (Test System: AMES SALMONELLA TYPHIMURIUM, Strain/Indicator: TA1535, Metabolic Activation: NONE, Method: STANDARD PLATE): active; positive
mutagenic call (Test System: AMES SALMONELLA TYPHIMURIUM, Strain/Indicator: TA1535, Metabolic Activation: RAT, LIVER, S-9, PHENOBARBITAL, Method: STANDARD PLATE): inactive; negative
mutagenic call (Test System: AMES SALMONELLA TYPHIMURIUM, Strain/Indicator: TA1537, Metabolic Activation: NONE, Method: STANDARD PLATE): inactive; negative
mutagenic call (Test System: AMES SALMONELLA TYPHIMURIUM, Strain/Indicator: TA1537, Metabolic Activation: RAT, LIVER, S-9, PHENOBARBITAL, Method: STANDARD PLATE): inactive; negative

O=C(N=c1sn(C(=O)c2ccc([N+](=O)[O-])cc2)c2ccc([N+](=O)[O-])cc12)c1ccc([N+](=O)[O-])cc1
mutagenic call (Test System: AMES SALMONELLA TYPHIMURIUM, Strain/Indicator: TA100, Metabolic Activation: S-9, Method: STANDARD PLATE): active; positive

CCCCCCCCOc1ccc(C(=O)O)cc1
mutagenic call (Test System: AMES SALMONELLA TYPHIMURIUM, Strain/Indicator: TA97, Metabolic Activation: HAMSTER, LIVER, S-9, AROCLOR 1254 (10%), Method: PREINCUBATION): inactive; negative
mutagenic call (Test System: AMES SALMONELLA TYPHIMURIUM, Strain/Indicator: TA97, Metabolic Activation: HAMSTER, LIVER, S-9, AROCLOR 1254 (30%), Method: PREINCUBATION): inactive; negative
mutagenic call (Test System: AMES SALMONELLA TYPHIMURIUM, Strain/Indicator: TA97, Metabolic Activation: NONE, Method: PREINCUBATION): inactive; negative
mutagenic call (Test System: AMES SALMONELLA TYPHIMURIUM, Strain/Indicator: TA97, Metabolic Activation: RAT, LIVER, S-9, AROCLOR 1254 (10%), Method: PREINCUBATION): inactive; negative
mutagenic call (Test System: AMES SALMONELLA TYPHIMURIUM, Strain/Indicator: TA97, Metabolic Activation: RAT, LIVER, S-9, AROCLOR 1254 (30%), Method: PREINCUBATION): inactive; negative
mutagenic call (Test System: AMES SALMONELLA TYPHIMURIUM, Strain/Indicator: TA98, Metabolic Activation: HAMSTER, LIVER, S-9, AROCLOR 1254 (10%), Method: PREINCUBATION): inactive; negative
mutagenic call (Test System: AMES SALMONELLA TYPHIMURIUM, Strain/Indicator: TA98, Metabolic Activation: HAMSTER, LIVER, S-9, AROCLOR 1254 (30%), Method: PREINCUBATION): inactive; negative
mutagenic call (Test System: AMES SALMONELLA TYPHIMURIUM, Strain/Indicator: TA98, Metabolic Activation: NONE, Method: PREINCUBATION): inactive; negative
mutagenic call (Test System: AMES SALMONELLA TYPHIMURIUM, Strain/Indicator: TA98, Metabolic Activation: RAT, LIVER, S-9, AROCLOR 1254 (10%), Method: PREINCUBATION): inactive; negative
mutagenic call (Test System: AMES SALMONELLA TYPHIMURIUM, Strain/Indicator: TA98, Metabolic Activation: RAT, LIVER, S-9, AROCLOR 1254 (30%), Method: PREINCUBATION): inactive; negative
mutagenic call (Test System: AMES SALMONELLA TYPHIMURIUM, Strain/Indicator: TA100, Metabolic Activation: HAMSTER, LIVER, S-9, AROCLOR 1254 (10%), Method: PREINCUBATION): inactive; negative
mutagenic call (Test System: AMES SALMONELLA TYPHIMURIUM, Strain/Indicator: TA100, Metabolic Activation: HAMSTER, LIVER, S-9, AROCLOR 1254 (30%), Method: PREINCUBATION): inactive; negative
mutagenic call (Test System: AMES SALMONELLA TYPHIMURIUM, Strain/Indicator: TA100, Metabolic Activation: NONE, Method: PREINCUBATION): inactive; negative
mutagenic call (Test System: AMES SALMONELLA TYPHIMURIUM, Strain/Indicator: TA100, Metabolic Activation: RAT, LIVER, S-9, AROCLOR 1254 (10%), Method: PREINCUBATION): inactive; negative
mutagenic call (Test System: AMES SALMONELLA TYPHIMURIUM, Strain/Indicator: TA100, Metabolic Activation: RAT, LIVER, S-9, AROCLOR 1254 (30%), Method: PREINCUBATION): inactive; negative
mutagenic call (Test System: AMES SALMONELLA TYPHIMURIUM, Strain/Indicator: TA1535, Metabolic Activation: HAMSTER, LIVER, S-9, AROCLOR 1254 (10%), Method: PREINCUBATION): inactive; negative
mutagenic call (Test System: AMES SALMONELLA TYPHIMURIUM, Strain/Indicator: TA1535, Metabolic Activation: HAMSTER, LIVER, S-9, AROCLOR 1254 (30%), Method: PREINCUBATION): inactive; negative
mutagenic call (Test System: AMES SALMONELLA TYPHIMURIUM, Strain/Indicator: TA1535, Metabolic Activation: NONE, Method: PREINCUBATION): inactive; negative
mutagenic call (Test System: AMES SALMONELLA TYPHIMURIUM, Strain/Indicator: TA1535, Metabolic Activation: RAT, LIVER, S-9, AROCLOR 1254 (10%), Method: PREINCUBATION): inactive; negative
mutagenic call (Test System: AMES SALMONELLA TYPHIMURIUM, Strain/Indicator: TA1535, Metabolic Activation: RAT, LIVER, S-9, AROCLOR 1254 (30%), Method: PREINCUBATION): inactive; negative

COc1cc2nc3cc(N)c(OC)cc3nc2cc1N
mutagenic call (Test System: AMES SALMONELLA TYPHIMURIUM, Strain/Indicator: TA98, Metabolic Activation: S-9, Method: SUSPENSION/PLATE): active; positive

NC(=O)Oc1ccccc1
mutagenic call (Test System: E. COLI, Strain/Indicator: WP2 UVRA, Metabolic Activation: NONE, Method: FLUCTUATION TEST): inactive; negative

O=C1CCc2c1ccc1c2ccc2ccccc21
mutagenic call (Test System: AMES SALMONELLA TYPHIMURIUM, Strain/Indicator: TA100, Metabolic Activation: RAT, LIVER, MICROSOMES, AROCLOR 1254, Method: STANDARD PLATE): active; positive
mutagenic call (Test System: AMES SALMONELLA TYPHIMURIUM, Strain/Indicator: TA100, Metabolic Activation: RAT, LIVER, MICROSOMES, BENZO[A]PYRENE, Method: STANDARD PLATE): inactive; negative
mutagenic call (Test System: AMES SALMONELLA TYPHIMURIUM, Strain/Indicator: TA100, Metabolic Activation: RAT, LIVER, MICROSOMES, CLOFIBRATE, Method: STANDARD PLATE): inactive; negative
mutagenic call (Test System: AMES SALMONELLA TYPHIMURIUM, Strain/Indicator: TA100, Metabolic Activation: RAT, LIVER, MICROSOMES, DEXAMETHASONE, Method: STANDARD PLATE): inactive; negative
mutagenic call (Test System: AMES SALMONELLA TYPHIMURIUM, Strain/Indicator: TA100, Metabolic Activation: RAT, LIVER, MICROSOMES, ISONIAZID, Method: STANDARD PLATE): inactive; negative
mutagenic call (Test System: AMES SALMONELLA TYPHIMURIUM, Strain/Indicator: TA100, Metabolic Activation: RAT, LIVER, MICROSOMES, PHENOBARBITONE, Method: STANDARD PLATE): inactive; negative
